Test results reported in patent US20230141783A1, “DIFFERENT FORMS OF 6-CHLORO-2-ETHYL-N-(4-(4-(4-(TRIFLUOROMETHOXY)PHENYL)PIPERIDINE-1-YL)BENZYL)IMIDAZO[1,2-A]PYRIDINE-3-CARBOXAMIDE” (priority 2019, published 2023).
Where “and” joins values, the source holds several entries; their conditions need not be identical. Equal entries are not always repeated. Entries after “also recorded” stand apart in the source; their conditions may differ. Where two headings read alike, the source gives them in different places.

Columns and labels:
[1] = Long-term stability at 25° C./60% RH (HPLC); assay type: physicochemical; conditions: 25° C. and 60% RH for up to 60 months; ditosylate
[2] = Stability under accelerated conditions 40° C./75% RH (HPLC); assay type: physicochemical; conditions: 40° C. and 75% RH up to 6 months
DVS water absorption = assay type: physicochemical; conditions: 90% RH at RT
Description: (FIGS. 4-5). It is the predominant form obtained in slurry experiments. Conversion from Form A to other XRPD patterns was mainly obtained from methanol (to Form C) or water (to pattern B) in the slurry medium. However, as it will be shown in further sections, Form C is converted to Form A upon re-slurry in the majority of other solvents (than methanol).
FIGS. 9 to 11 show XRPD, DSC, and TGA of a solid with Form C. […] The XRPD peaks of pattern C are sharper than those of Form A. Form C is the predominant form when methanol is used as the slurry medium. However, Form “C” is not a methanol solvate form of the di-tosylate salt. Many reactive crystallization experiments using different solvents generated Form C immediately after salt formation.

[3] = Exposing Forms A and C in 100% RH at RT (XRPD/DSC); assay type: physicochemical; conditions: 100% RH at RT for 6 days
Description: Forms A and C were exposed in 100% RH environment at RT for 6 days; the solids were subsequently analyzed using DSC and XRPD.
In FIGS. 1 and 17, the XRPD of sample of Form A (previous obtained form EA and IPA/MEK) before and after 6 days exposure to 100% RH are sketched. FIGS. 19 and 20 show the DSC scan of the same samples after exposure. […] FIGS. 18 and 21 show the result of the same treatment for Form C.

[4] = Humidity stress of generated salts (75% relative humidity, 7 days, XRPD); assay type: physicochemical; conditions: test for deliquescence, sample stressed for several days under 75% RH
Experimental: Approximately 25 mg of generated salts of […] were added to vials and placed unsealed into a 75% relative humidity chamber (sealed cabinets with relative humidity conditions controlled by super-saturated salt solutions) at ambient temperature for 7 days prior to analysis by XRPD.

[5] = Solubility estimation by aliquot addition and Clarity temperature cycling
[6] = pH 4.5 buffer, pull time 23 hrs
[7] = pH 6.8 buffer, pull time 22.5 hrs
[8] = pH 7.5 buffer, pull time 72 hrs

CCc1nc2ccc(Cl)cn2c1C(=O)NCc1ccc(N2CCC(c3ccc(OC(F)(F)F)cc3)CC2)cc1.Cc1ccc(S(=O)(=O)O)cc1.Cc1ccc(S(=O)(=O)O)cc1 [6-chloro-2-ethyl-N-(4-(4-(4-(trifluoromethoxy)phenyl)piperidine-1-yl)benzyl)imidazo[1,2-a]pyridine-3-carboxamide ditosylate]
long-term storage stability [1]: stable
stability under accelerated conditions [2]: stable

CCc1nc2ccc(Cl)cn2c1C(=O)NCc1ccc(N2CCC(c3ccc(OC(F)(F)F)cc3)CC2)cc1.Cc1ccc(S(=O)(=O)O)cc1.Cc1ccc(S(=O)(=O)O)cc1 [Ditosylate]
HPLC concentration based on avg std (pH 1, client result): 1.45 (client result) mg/ml

CCc1nc2ccc(Cl)cn2c1C(=O)NCc1ccc(N2CCC(c3ccc(OC(F)(F)F)cc3)CC2)cc1.Cc1ccc(S(=O)(=O)O)cc1.Cc1ccc(S(=O)(=O)O)cc1 [Form C]
water absorption (DVS) (DVS water absorption): less than 0.3%
crystalline form after exposure to 100% RH [3]: maintains its crystalline form; also recorded: crystal structure does not change

CCc1nc2ccc(Cl)cn2c1C(=O)NCc1ccc(N2CCC(c3ccc(OC(F)(F)F)cc3)CC2)cc1.Cl [HCl salt, 6-chloro-2-ethyl-N-(4-(4-(4-(trifluoromethoxy)phenyl)piperidine-1-yl)benzyl)imidazo[1,2-a]pyridine-3-carboxamide mono-hydrochloride]
solid form after slurrying in buffer (XRPD) (all buffers tested (pH 1, 4.5, 6.8, 7.5), listed as HCl, mono-hydrochloride): Type 56
solid form after slurrying in buffer (XRPD) (all buffers tested (pH 1, 4.5, 6.8, 7.5), mono-hydrochloride): no conversion to the free base was observed
solubility in comparison to the di-tosylate salt (pH 1): better solubility

CCc1nc2ccc(Cl)cn2c1C(=O)NCc1ccc(N2CCC(c3ccc(OC(F)(F)F)cc3)CC2)cc1.Cl [HCl salt, Type 36]
XRPD of solid isolated after pH solubility experiment (pH 1 buffer, pull time 24 hrs): T56 HCl salt crystalline
HPLC concentration based on avg std [6]: 0.000323 mg/mL and 0.000307 mg/mL
XRPD of solid isolated after pH solubility experiment [6]: T56 HCl salt crystalline
HPLC concentration based on avg std [7]: 0.000285 mg/mL and 0.000277 mg/mL
XRPD of solid isolated after pH solubility experiment [7]: T56 HCl salt crystalline
HPLC concentration based on avg std [8]: 3.28e-05 mg/mL and 3.57e-05 mg/mL
XRPD of solid isolated after pH solubility experiment [8]: T56 HCl salt crystalline

CCc1nc2ccc(Cl)cn2c1C(=O)NCc1ccc(N2CCC(c3ccc(OC(F)(F)F)cc3)CC2)cc1.Cc1ccc(S(=O)(=O)O)cc1.Cc1ccc(S(=O)(=O)O)cc1 [Pat A]
RH stress (20C/75RH) [4]: stable
RH stress (20C/75RH) ([4]; 20C): stable
Aq. Sol ([5]; approximate values by aliquot addition on unbuffered water): <0.38 mg/mL
Aq. Sol ([5]; approximate values measured by aliquot addition in unbuffered water): <0.38 mg/mL

CCc1nc2ccc(Cl)cn2c1C(=O)NCc1ccc(N2CCC(c3ccc(OC(F)(F)F)cc3)CC2)cc1.O=P(O)(O)O [Phosphate salt, Type 37]
XRPD of solid isolated after pH solubility experiment (pH 1): T56 HCl salt v. disordered
HPLC concentration based on avg std (pH 1 buffer, pull time 24 hrs): 5.33 mg/mL and 5.64 mg/mL
XRPD of solid isolated after pH solubility experiment (pH 4.5): Type 28 disordered
HPLC concentration based on avg std [6]: 0.000384 mg/mL and 0.000336 mg/mL
XRPD of solid isolated after pH solubility experiment (pH 6.8): Type 28 disordered
HPLC concentration based on avg std [7]: 0.00028 mg/mL and 0.000297 mg/mL
XRPD of solid isolated after pH solubility experiment (pH 7.5): Type 28 disordered
HPLC concentration based on avg std [8]: 6.39e-05 mg/mL and 4.1e-05 mg/mL

CCc1nc2ccc(Cl)cn2c1C(=O)NCc1ccc(N2CCC(c3ccc(OC(F)(F)F)cc3)CC2)cc1 [Type 28]
solubility (pH 4.5 and above): < 0.00037 mg/mL

CCc1nc2ccc(Cl)cn2c1C(=O)NCc1ccc(N2CCC(c3ccc(OC(F)(F)F)cc3)CC2)cc1.Cl [Type 36]
solid form after slurrying in buffer (XRPD) (all buffers tested (pH 1, 4.5, 6.8, 7.5), listed as Type 36 HCl salt): converted to new type HCl salt Type 56

CCc1nc2ccc(Cl)cn2c1C(=O)NCc1ccc(N2CCC(c3ccc(OC(F)(F)F)cc3)CC2)cc1.Cl [Type 56]
solubility (pH 1 buffer, room temperature): ~ 5.58 mg/mL

CCc1nc2ccc(Cl)cn2c1C(=O)NCc1ccc(N2CCC(c3ccc(OC(F)(F)F)cc3)CC2)cc1.Cc1ccc(S(=O)(=O)O)cc1 [pTSA salt, Type 20]
HPLC concentration based on avg std (pH 1 buffer, pull time 24 hrs): 0.33 mg/mL and 0.32 mg/mL
XRPD of solid isolated after pH solubility experiment (pH 1 buffer, pull time 24 hrs): p-TSA salt T20 crystalline
HPLC concentration based on avg std [6]: 0.000366 mg/mL and 0.000333 mg/mL
XRPD of solid isolated after pH solubility experiment [6]: Type 28 disordered
HPLC concentration based on avg std [7]: 0.000312 mg/mL and 0.000307 mg/mL
XRPD of solid isolated after pH solubility experiment [7]: Type 28 disordered
XRPD of solid isolated after pH solubility experiment [8]: Type 28 disordered

CCc1nc2ccc(Cl)cn2c1C(=O)NCc1ccc(N2CCC(c3ccc(OC(F)(F)F)cc3)CC2)cc1.O=P(O)(O)O [phosphate salt, 6-chloro-2-ethyl-N-(4-(4-(4-(trifluoromethoxy)phenyl)piperidine-1-yl)benzyl)imidazo[1,2-a]pyridine-3-carboxamide mono-phosphate]
solid form after slurrying in buffer (XRPD) (all buffers tested (pH 1, 4.5, 6.8, 7.5)): not stable
solubility in comparison to the di-tosylate salt (low pH, especially around pH1): better solubility
solid form after slurrying in buffer (XRPD) (pH 1 buffer, listed as Phosphate salt, mono-phosphate): converted to HCl Type 56
solid form after slurrying in buffer (XRPD) (pH 1 buffer, mono-phosphate): converted to a new HCl salt, Type 56
solid form after slurrying in buffer (XRPD) (pH 4.5 and above): converted to freebase
